# Measured values: ChEMBL document CHEMBL3044873, “Aryl N, N-Dimethylcarbamates, Synergists for Organophosphorus Insecticides against Organophos-phorusresistant Rice Stem Borers” (J Pestic Sci, 1990)
# Tests used:
# Chilo suppressalis [1] = test: Potentiation of pirimiphos-methyl-induced insecticidal activity against OP-resistant Chilo suppressalis Hata-f (rice stem borer) assessed as synergistic ratio at 1:10 pirimiphos-methyl to compound ratio relative to pirimiphos-methyl alone; format: functional
# Chilo suppressalis [2] = test: Inhibition of fenitrothion-detoxification activities by hydrolysis in OP-resistant Chilo suppressalis Hata-f (rice stem borer); format: organism-based; conditions: read-out: I50
# [3] = system: fenitrothion-detoxification activity by hydrolysis; test: Inhibition of fenitrothion-detoxification activities by hydrolysis in OP-resistant Chilo suppressalis Hata-f (rice stem borer) at 1x10'-4M (reference value: 0%); format: organism-based; conditions: probe fenitrothion
# [4] = system: fenitrothion-detoxification activity by hydrolysis; test: Inhibition of fenitrothion-detoxification activities by hydrolysis in OP-resistant Chilo suppressalis Hata-f (rice stem borer) at 1x10'-5M (reference value: 0%); format: organism-based; conditions: probe fenitrothion
# [5] = system: fenitrothion-detoxification activity by hydrolysis; test: Inhibition of fenitrothion-detoxification activities by hydrolysis in OP-resistant Chilo suppressalis Hata-f (rice stem borer) at 1x10'-6M (reference value: 0%); format: organism-based; conditions: probe fenitrothion
# [6] = system: fenitrothion-detoxification activity by hydrolysis; test: Inhibition of fenitrothion-detoxification activities by hydrolysis in OP-resistant Chilo suppressalis Hata-f (rice stem borer) at 1x10'-7M (reference value: 0%); format: organism-based; conditions: probe fenitrothion
# Chilo suppressalis [7] = test: Inhibition of fenitrothion-detoxification activities by binding protein in OP-resistant Chilo suppressalis Hata-f (rice stem borer); format: organism-based; conditions: read-out: I50
# [8] = system: fenitrothion-detoxification activity by binding protein; test: Inhibition of fenitrothion-detoxification activities by binding protein in OP-resistant Chilo suppressalis Hata-f (rice stem borer) at 1x10'-4M (reference value: 0%); format: organism-based; conditions: in vivo, probe fenitrothion
# [9] = system: fenitrothion-detoxification activity by binding protein; test: Inhibition of fenitrothion-detoxification activities by binding protein in OP-resistant Chilo suppressalis Hata-f (rice stem borer) at 1x10'-5M (reference value: 0%); format: organism-based; conditions: in vivo, probe fenitrothion
# [10] = system: fenitrothion-detoxification activity by binding protein; test: Inhibition of fenitrothion-detoxification activities by binding protein in OP-resistant Chilo suppressalis Hata-f (rice stem borer) at 1x10'-6M (reference value: 0%); format: organism-based; conditions: in vivo, probe fenitrothion
# [11] = system: fenitrothion-detoxification activity by binding protein; test: Inhibition of fenitrothion-detoxification activities by binding protein in OP-resistant Chilo suppressalis Hata-f (rice stem borer) at 1x10'-7M (reference value: 0%); format: organism-based; conditions: in vivo, probe fenitrothion
# Chilo suppressalis [12] = test: Potentiation of fenitrothion-induced insecticidal activity against OP-susceptible Chilo suppressalis (rice stem borer) S strain assessed as synergistic ratio at 1:10 fenitrothion to compound ratio relative to fenitrothion alone; format: functional
# Chilo suppressalis [13] = test: Potentiation of pirimiphos-methyl-induced insecticidal activity against OP-resistant Chilo suppressalis Hata-f (rice stem borer) assessed as synergistic ratio at 1:5 pirimiphos-methyl to compound ratio relative to pirimiphos-methyl alone; format: functional
# Chilo suppressalis [14] = test: Potentiation of pirimiphos-methyl-induced insecticidal activity against OP-resistant Chilo suppressalis Hata-f (rice stem borer) assessed as synergistic ratio at 1:1 pirimiphos-methyl to compound ratio relative to pirimiphos-methyl alone; format: functional
# Chilo suppressalis [15] = test: Potentiation of fenitrothion-induced insecticidal activity against OP-resistant Chilo suppressalis Hata-f (rice stem borer) assessed as synergistic ratio at 1:10 fenitrothion to compound ratio relative to fenitrothion alone; format: functional
# Chilo suppressalis [16] = test: Resistance ratio, LC50 for OP-resistance Chilo suppressalis Hata-f (rice stem borer) to OP-susceptible Chilo suppressalis S (rice stem borer) strain; format: functional
# Chilo suppressalis [17] = test: Insecticidal activity against OP-resistance Chilo suppressalis Hata-f (rice stem borer) assessed as mortality measured after 24 hr; format: functional
# Chilo suppressalis [18] = test: Insecticidal activity against OP-susceptible Chilo suppressalis S (rice stem borer) strain assessed as mortality measured after 24 hr; format: functional
SMILES,fold change (FC) (Chilo suppressalis [15]),further results
Cc1cc(OC(=O)N(C)C)nc(N(C)C)n1,38,fold change (FC) (Chilo suppressalis [1]): 1061; IC50 (Chilo suppressalis [2]): 4.5 µM; inhibition at 100 µM [3]: 78%; inhibition at 10 µM [4]: 66.7%; inhibition at 1 µM [5]: 22.2%; inhibition at 0.1 µM [6]: 0%; IC50 (Chilo suppressalis [7]): 3.3 µM; inhibition at 100 µM [8]: 78.4%; inhibition at 10 µM [9]: 75%; inhibition at 1 µM [10]: 19.3%; inhibition at 0.1 µM [11]: 0%; fold change (FC) (Chilo suppressalis [12]): 1; fold change (FC) (Chilo suppressalis [13]): 751; fold change (FC) (Chilo suppressalis [14]): 234
CCN(CC)c1nc(C)cc(OC(=O)N(C)C)n1,20,fold change (FC) (Chilo suppressalis [1]): 451; fold change (FC) (Chilo suppressalis [12]): 1; fold change (FC) (Chilo suppressalis [13]): 440; fold change (FC) (Chilo suppressalis [14]): 86
Cc1cc(OC(=O)N(C)C)no1,16,fold change (FC) (Chilo suppressalis [1]): 582; fold change (FC) (Chilo suppressalis [13]): 438; fold change (FC) (Chilo suppressalis [14]): 90
CN(C)C(=O)Oc1cc(-c2ccccc2)on1,23,fold change (FC) (Chilo suppressalis [1]): 419; fold change (FC) (Chilo suppressalis [12]): 0.9; fold change (FC) (Chilo suppressalis [13]): 328; fold change (FC) (Chilo suppressalis [14]): 67
Cc1cc(OC(=O)N(C)C)ccc1[N+](=O)[O-],23,fold change (FC) (Chilo suppressalis [1]): 207; fold change (FC) (Chilo suppressalis [12]): 0.7; fold change (FC) (Chilo suppressalis [13]): 196; fold change (FC) (Chilo suppressalis [14]): 67
CSc1ccc(OC(=O)N(C)C)cc1C,22,fold change (FC) (Chilo suppressalis [1]): 231; fold change (FC) (Chilo suppressalis [12]): 0.9; fold change (FC) (Chilo suppressalis [13]): 188; fold change (FC) (Chilo suppressalis [14]): 72
CNc1nc(C)cc(OC(=O)N(C)C)n1,21,fold change (FC) (Chilo suppressalis [1]): 818; fold change (FC) (Chilo suppressalis [13]): 451; fold change (FC) (Chilo suppressalis [14]): 129
"CN(C)C(=O)Oc1ccc([N+](=O)[O-])cc1[N+](=O)[O-] [2,4-DINITROPHENYL DIMETHYLCARBAMATE]",0.8,
CN(C)CCOC(=O)N(C)C [2-(DIMETHYLAMINO)ETHYL DIMETHYLCARBAMATE],1,
CCSCCOC(=O)N(C)C [2-(ETHYLTHIO)ETHYL DIMETHYLCARBAMATE],1,
CN(C)C(=O)Oc1ccccc1Cl [2-CHLOROPHENYL DIMETHYLCARBAMATE],5.1,
CN(C)C(=O)Oc1ccccc1[N+](=O)[O-] [2-NITROPHENYL DIMETHYLCARBAMATE],5.8,
"Cc1ccc(OC(=O)N(C)C)cc1C [3,4-DIMETHYLPHENYL DIMETHYLCARBAMATE]",9.5,
"Cc1cc(C)cc(OC(=O)N(C)C)c1 [3,5-DIMETHYLPHENYL DIMETHYLCARBAMATE]",5.8,
CN(C)C(=O)Oc1cccc(Cl)c1 [3-CHLOROPHENYL DIMETHYLCARBAMATE],11,
CC(C)c1cccc(OC(=O)N(C)C)c1 [3-ISOPROPYLPHENYL DIMETHYLCARBAMATE],4.3,
CN(C)C(=O)Oc1cccc([N+](=O)[O-])c1 [3-NITROPHENYL DIMETHYLCARBAMATE],8.2,
CCN(CC)C(=O)Oc1ccc(SC)cc1 [4-(METHYLTHIO)PHENYL DIETHYLCARBAMATE],2.9,
CSc1ccc(OC(=O)N(C)C)cc1 [4-(METHYLTHIO)PHENYL DIMETHYLCARBAMATE],16,
CCNC(=O)Oc1ccc(SC)cc1 [4-(METHYLTHIO)PHENYL ETHYLCARBAMATE],1.4,
CNC(=O)Oc1ccc(SC)cc1 [4-(METHYLTHIO)PHENYL METHYLCARBAMATE],1.1,
CC(=O)c1ccc(OC(=O)N(C)C)cc1 [4-ACETYLPHENYL DIMETHYLCARBAMATE],6.9,
CN(C)C(=O)Oc1ccc(Cl)cc1 [4-CHLOROPHENYL DIMETHYLCARBAMATE],10,
CCN(CC)C(=O)Oc1ccc(C#N)cc1 [4-CYANOPHENYL DIETHYLCARBAMATE],1.7,
CN(C)C(=O)Oc1ccc(C#N)cc1 [4-CYANOPHENYL DIMETHYLCARBAMATE],14,

SMILES,fold change (FC) (Chilo suppressalis [15]),further results
CCNC(=O)Oc1ccc(C#N)cc1 [4-CYANOPHENYL ETHYLCARBAMATE],1.5,
CNC(=O)Oc1ccc(C#N)cc1 [4-CYANOPHENYL METHYLCARBAMATE],1.1,
N#Cc1ccc(OC(=O)Nc2ccccc2)cc1 [4-CYANOPHENYL PHENYLCARBAMATE],0.8,
COc1ccc(OC(=O)N(C)C)cc1 [4-METHOXYPHENYL DIMETHYLCARBAMATE],3,
CN(C)C(=O)OCc1ccc([N+](=O)[O-])cc1 [4-NITROBENZYL DIMETHYLCARBAMATE],1,
CCN(CC)C(=O)Oc1ccc([N+](=O)[O-])cc1 [4-NITROPHENYL DIETHYLCARBAMATE],3.3,
CN(C)C(=O)Oc1ccc([N+](=O)[O-])cc1 [4-NITROPHENYL DIMETHYLCARBAMATE],10,
CCNC(=O)Oc1ccc([N+](=O)[O-])cc1 [4-NITROPHENYL ETHYLCARBAMATE],1.2,
CNC(=O)Oc1ccc([N+](=O)[O-])cc1 [4-NITROPHENYL METHYLCARBAMATE],0.9,
O=C(Nc1ccccc1)Oc1ccc([N+](=O)[O-])cc1 [4-NITROPHENYL PHENYLCARBAMATE],0.9,
CN(C)C(=O)OCc1ccccc1 [BENZYL DIMETHYLCARBAMATE],0.9,
CCOC(=O)Nc1ccccc1 [ETHYL PHENYLCARBAMATE],0.8,
COP(=S)(OC)Oc1ccc([N+](=O)[O-])c(C)c1 [FENITROTHION],,RatioLC50 (Chilo suppressalis [16]): 38; LD50 (Chilo suppressalis [17]): 69 mg/kg; LD50 (Chilo suppressalis [18]): 1.8 mg/kg
COP(=O)(OC)Oc1ccc([N+](=O)[O-])c(C)c1 [FENITROXON],,RatioLC50 (Chilo suppressalis [16]): 23; LD50 (Chilo suppressalis [17]): 27 mg/kg; LD50 (Chilo suppressalis [18]): 1.2 mg/kg
CC(C)OC(=O)c1ccc(OC(=O)N(C)C)cc1 [ISOPROPYL 4-(DIMETHYLCARBAMOYLOXY)BENZOATE],0.9,
Cc1cccc(OC(=O)N(C)C)c1 [M-TOLYL DIMETHYLCARBAMATE],9.2,
COC(=O)c1ccc(OC(=O)N(C)C)cc1 [METHYL 4-(DIMETHYLCARBAMOYLOXY)BENZOATE],6.3,
CN(C)C(=O)Oc1ccc2ccccc2c1 [NAPHTHALEN-2-YL DIMETHYLCARBAMATE],16,
Cc1ccccc1OC(=O)N(C)C [O-TOLYL DIMETHYLCARBAMATE],4.3,
Cc1ccc(OC(=O)N(C)C)cc1 [P-TOLYL DIMETHYLCARBAMATE],8.1,
CN(C)C(=O)Oc1ccccc1 [PHENYL DIMETHYLCARBAMATE],5.8,
Cc1nc(N(C)C)nc(OC(=O)N(C)C)c1C [PIRIMICARB],6.3,
CCN(CC)c1nc(C)cc(OP(=S)(OC)OC)n1 [PIRIMIPHOS METHYL],,RatioLC50 (Chilo suppressalis [16]): 1202; LD50 (Chilo suppressalis [17]): 1800 mg/kg; LD50 (Chilo suppressalis [18]): 1.5 mg/kg
CN(C)C(=O)SCc1ccccc1 [S-BENZYL DIMETHYLCARBAMOTHIOATE],1,
